Experimental data taken from paper PMC11345841, “Exploring 2-Sulfonylpyrimidine Warheads as Acrylamide Surrogates for Targeted Covalent Inhibition: A BTK Story” (Journal of Medicinal Chemistry, 2024).
Read-outs that look alike come from different tables or passages of the source.

What was measured:
[1] = biological target: T1, KIT(D816H) (Homo sapiens, UniProt P10721, D816H); test: KINOMEscan ScanTK; format: binding
T1 construct: purchased Eurofins DiscoverX KINOMEscan (scanTK)

[2] = biological target: T2, RET(M918T) (Homo sapiens, UniProt P07949, M918T); test: KINOMEscan ScanTK; format: binding
T2 construct: purchased Eurofins DiscoverX KINOMEscan (scanTK)
T2 sequence (P07949 29-1114 M918T): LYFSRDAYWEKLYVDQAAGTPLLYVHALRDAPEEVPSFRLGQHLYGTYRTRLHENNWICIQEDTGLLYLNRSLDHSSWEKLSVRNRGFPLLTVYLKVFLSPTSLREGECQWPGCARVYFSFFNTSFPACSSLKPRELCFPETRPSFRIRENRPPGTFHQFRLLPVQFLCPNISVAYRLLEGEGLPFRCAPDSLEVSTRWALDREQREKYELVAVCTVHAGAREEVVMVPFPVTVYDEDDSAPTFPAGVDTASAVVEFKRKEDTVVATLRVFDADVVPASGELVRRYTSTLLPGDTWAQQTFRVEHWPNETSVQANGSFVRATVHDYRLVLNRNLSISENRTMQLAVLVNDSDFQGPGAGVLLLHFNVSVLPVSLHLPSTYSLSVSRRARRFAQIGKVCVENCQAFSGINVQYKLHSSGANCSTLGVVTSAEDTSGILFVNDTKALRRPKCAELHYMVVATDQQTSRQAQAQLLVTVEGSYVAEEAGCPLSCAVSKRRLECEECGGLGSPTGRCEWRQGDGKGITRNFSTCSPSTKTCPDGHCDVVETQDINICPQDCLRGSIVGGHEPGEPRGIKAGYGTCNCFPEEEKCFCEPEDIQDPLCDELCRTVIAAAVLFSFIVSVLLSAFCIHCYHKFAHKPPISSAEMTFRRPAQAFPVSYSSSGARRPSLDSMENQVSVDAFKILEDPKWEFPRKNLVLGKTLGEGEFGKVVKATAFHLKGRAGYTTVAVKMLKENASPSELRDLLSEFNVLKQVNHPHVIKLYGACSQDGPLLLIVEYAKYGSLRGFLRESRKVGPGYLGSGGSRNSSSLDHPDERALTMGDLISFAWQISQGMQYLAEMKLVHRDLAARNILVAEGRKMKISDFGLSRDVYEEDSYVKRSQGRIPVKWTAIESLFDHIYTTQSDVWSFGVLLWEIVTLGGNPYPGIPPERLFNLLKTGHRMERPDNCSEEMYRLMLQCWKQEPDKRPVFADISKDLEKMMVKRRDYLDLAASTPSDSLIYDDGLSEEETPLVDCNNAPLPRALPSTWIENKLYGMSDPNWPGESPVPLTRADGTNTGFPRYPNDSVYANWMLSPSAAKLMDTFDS

[3] = biological target: T3, RET(V804M) (Homo sapiens, UniProt P07949, V804M); test: KINOMEscan ScanTK; format: binding
T3 construct: purchased Eurofins DiscoverX KINOMEscan (scanTK)

[4] = biological target: T4, FES (Homo sapiens, UniProt P07332); test: KINOMEscan ScanTK; format: binding
T4 construct: purchased Eurofins DiscoverX KINOMEscan (scanTK)

[5] = biological target: T5, PDGFRA (Homo sapiens, UniProt P16234); test: KINOMEscan ScanTK; format: binding
T5 construct: purchased Eurofins DiscoverX KINOMEscan (scanTK)
T5 sequence (P16234 24-1089): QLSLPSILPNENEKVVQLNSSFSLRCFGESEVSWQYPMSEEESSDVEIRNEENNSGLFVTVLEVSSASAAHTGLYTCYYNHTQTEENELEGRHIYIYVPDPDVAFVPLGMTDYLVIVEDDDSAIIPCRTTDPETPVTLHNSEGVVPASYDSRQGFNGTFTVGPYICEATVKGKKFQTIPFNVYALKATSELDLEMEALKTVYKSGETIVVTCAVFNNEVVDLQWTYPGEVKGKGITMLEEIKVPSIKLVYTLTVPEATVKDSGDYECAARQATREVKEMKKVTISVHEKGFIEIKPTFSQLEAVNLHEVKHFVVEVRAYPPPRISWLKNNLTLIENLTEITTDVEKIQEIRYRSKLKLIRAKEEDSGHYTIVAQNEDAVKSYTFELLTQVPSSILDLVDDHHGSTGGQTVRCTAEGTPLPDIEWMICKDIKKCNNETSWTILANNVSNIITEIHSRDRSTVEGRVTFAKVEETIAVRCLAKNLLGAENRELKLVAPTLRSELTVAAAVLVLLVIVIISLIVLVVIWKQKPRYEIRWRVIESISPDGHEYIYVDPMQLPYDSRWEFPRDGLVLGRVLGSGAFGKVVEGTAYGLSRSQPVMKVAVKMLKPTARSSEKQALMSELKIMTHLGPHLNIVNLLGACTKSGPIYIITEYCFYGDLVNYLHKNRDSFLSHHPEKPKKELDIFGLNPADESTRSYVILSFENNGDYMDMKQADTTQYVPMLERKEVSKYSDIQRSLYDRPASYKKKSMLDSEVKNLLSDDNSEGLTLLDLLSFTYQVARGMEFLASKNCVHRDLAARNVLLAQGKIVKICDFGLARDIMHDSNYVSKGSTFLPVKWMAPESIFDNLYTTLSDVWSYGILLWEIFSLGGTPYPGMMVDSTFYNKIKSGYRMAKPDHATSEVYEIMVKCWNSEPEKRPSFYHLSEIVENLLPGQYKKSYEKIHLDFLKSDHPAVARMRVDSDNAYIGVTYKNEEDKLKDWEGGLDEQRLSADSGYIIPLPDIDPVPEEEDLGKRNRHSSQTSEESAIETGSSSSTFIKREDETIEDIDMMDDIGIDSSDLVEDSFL

[6] = biological target: T6, EGFR(T790M) (Homo sapiens, UniProt P00533, T790M); test: KINOMEscan ScanTK; format: binding
T6 construct: purchased Eurofins DiscoverX KINOMEscan (scanTK)
T6 sequence (P00533 25-1210 T790M): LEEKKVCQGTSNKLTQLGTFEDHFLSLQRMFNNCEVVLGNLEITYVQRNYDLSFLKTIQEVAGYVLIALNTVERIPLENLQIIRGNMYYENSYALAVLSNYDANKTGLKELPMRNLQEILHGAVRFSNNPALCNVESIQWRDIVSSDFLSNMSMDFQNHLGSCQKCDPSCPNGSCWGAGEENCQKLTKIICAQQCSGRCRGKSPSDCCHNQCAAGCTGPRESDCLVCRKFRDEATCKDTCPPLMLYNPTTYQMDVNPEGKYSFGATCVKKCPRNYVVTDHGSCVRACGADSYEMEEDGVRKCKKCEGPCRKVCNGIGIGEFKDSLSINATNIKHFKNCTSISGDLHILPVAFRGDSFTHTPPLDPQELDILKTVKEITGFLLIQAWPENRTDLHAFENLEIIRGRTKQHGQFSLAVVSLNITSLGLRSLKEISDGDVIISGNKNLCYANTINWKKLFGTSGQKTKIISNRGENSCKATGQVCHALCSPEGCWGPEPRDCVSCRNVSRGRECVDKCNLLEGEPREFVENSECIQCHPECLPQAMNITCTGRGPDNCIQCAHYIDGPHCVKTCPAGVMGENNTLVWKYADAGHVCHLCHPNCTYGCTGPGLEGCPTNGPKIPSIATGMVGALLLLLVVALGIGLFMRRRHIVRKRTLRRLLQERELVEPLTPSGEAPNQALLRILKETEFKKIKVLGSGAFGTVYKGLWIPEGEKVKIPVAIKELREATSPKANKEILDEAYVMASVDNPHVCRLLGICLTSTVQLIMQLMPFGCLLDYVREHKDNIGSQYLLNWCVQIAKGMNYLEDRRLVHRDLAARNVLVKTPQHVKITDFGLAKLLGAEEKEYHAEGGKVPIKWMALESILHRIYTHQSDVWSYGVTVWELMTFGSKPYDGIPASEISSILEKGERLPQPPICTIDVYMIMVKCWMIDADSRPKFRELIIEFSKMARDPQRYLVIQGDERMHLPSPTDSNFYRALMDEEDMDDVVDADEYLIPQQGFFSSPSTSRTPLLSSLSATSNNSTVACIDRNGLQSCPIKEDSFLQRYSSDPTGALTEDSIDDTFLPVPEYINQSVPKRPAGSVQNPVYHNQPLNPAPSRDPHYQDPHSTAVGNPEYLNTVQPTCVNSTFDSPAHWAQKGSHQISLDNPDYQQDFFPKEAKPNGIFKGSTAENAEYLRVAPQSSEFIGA

[7] = biological target: T7, LCK (Homo sapiens, UniProt P06239); test: KINOMEscan ScanTK; format: binding
T7 construct: purchased Eurofins DiscoverX KINOMEscan (scanTK)

[8] = biological target: T8, JAK1(JH2domain-pseudokinase) (Homo sapiens, UniProt P23458); test: KINOMEscan ScanTK; format: binding
T8 construct: JAK1(JH2domain-pseudokinase); purchased Eurofins DiscoverX KINOMEscan (scanTK)

[9] = biological target: T9, MERTK (Homo sapiens, UniProt Q12866); test: KINOMEscan ScanTK; format: binding
T9 construct: purchased Eurofins DiscoverX KINOMEscan (scanTK)
T9 sequence (Q12866 21-999): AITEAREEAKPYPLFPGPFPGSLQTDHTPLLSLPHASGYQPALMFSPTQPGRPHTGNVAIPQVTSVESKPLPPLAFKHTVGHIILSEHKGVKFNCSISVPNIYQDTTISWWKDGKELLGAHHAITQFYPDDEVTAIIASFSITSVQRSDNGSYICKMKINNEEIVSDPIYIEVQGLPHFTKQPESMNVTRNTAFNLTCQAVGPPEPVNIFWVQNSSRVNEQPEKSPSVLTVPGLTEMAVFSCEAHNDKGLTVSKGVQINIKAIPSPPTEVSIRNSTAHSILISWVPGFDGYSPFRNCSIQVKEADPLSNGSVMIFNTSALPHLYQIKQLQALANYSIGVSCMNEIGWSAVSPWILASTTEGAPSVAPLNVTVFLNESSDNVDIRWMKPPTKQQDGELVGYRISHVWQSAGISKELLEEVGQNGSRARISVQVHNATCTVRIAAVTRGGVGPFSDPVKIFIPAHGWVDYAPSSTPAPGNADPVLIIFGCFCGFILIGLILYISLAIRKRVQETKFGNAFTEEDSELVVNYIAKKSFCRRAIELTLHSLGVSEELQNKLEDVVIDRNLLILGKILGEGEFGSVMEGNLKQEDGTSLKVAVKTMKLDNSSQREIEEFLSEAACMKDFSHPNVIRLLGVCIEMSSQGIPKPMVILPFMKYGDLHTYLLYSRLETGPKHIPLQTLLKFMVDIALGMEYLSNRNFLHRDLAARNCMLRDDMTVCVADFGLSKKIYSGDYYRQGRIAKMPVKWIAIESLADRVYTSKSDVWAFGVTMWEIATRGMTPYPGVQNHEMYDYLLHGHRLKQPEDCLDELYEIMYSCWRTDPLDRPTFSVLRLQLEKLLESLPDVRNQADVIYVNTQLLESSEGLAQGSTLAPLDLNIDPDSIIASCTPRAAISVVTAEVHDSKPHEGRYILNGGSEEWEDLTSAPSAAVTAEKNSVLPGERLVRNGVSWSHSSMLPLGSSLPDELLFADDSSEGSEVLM

[10] = biological target: T10, FLT3(D835H) (Homo sapiens, UniProt P36888, D835H); test: KINOMEscan ScanTK; format: binding
T10 construct: purchased Eurofins DiscoverX KINOMEscan (scanTK)
T10 sequence (P36888 27-993 D835H): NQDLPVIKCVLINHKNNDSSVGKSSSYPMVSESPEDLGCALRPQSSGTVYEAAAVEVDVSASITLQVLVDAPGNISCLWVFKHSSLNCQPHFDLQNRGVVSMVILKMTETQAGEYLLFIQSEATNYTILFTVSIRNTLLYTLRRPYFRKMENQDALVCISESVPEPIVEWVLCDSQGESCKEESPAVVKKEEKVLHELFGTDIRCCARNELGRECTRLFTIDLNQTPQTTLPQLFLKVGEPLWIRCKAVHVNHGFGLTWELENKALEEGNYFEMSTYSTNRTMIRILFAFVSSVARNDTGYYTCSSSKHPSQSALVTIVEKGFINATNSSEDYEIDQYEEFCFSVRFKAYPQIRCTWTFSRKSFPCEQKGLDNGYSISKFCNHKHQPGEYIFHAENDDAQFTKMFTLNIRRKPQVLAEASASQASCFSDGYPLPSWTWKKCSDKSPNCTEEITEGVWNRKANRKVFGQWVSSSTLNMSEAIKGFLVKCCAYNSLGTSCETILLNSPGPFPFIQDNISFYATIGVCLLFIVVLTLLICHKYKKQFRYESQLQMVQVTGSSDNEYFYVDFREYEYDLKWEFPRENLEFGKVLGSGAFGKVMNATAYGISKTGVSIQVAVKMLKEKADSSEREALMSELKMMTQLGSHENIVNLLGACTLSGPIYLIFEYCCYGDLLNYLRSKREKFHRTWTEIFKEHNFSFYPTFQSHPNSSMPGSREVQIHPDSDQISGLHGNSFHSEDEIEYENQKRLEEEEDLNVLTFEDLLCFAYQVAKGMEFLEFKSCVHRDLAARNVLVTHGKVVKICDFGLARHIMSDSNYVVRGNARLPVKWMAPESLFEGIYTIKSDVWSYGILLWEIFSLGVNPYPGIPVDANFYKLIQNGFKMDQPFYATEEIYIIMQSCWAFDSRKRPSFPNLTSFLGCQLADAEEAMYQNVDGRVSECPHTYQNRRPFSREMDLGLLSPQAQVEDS

[11] = biological target: T11, TRKC (Homo sapiens, UniProt Q16288); test: KINOMEscan ScanTK; format: binding; settings: TRKC
T11 construct: purchased Eurofins DiscoverX KINOMEscan (scanTK)
T11 sequence (Q16288 32-839): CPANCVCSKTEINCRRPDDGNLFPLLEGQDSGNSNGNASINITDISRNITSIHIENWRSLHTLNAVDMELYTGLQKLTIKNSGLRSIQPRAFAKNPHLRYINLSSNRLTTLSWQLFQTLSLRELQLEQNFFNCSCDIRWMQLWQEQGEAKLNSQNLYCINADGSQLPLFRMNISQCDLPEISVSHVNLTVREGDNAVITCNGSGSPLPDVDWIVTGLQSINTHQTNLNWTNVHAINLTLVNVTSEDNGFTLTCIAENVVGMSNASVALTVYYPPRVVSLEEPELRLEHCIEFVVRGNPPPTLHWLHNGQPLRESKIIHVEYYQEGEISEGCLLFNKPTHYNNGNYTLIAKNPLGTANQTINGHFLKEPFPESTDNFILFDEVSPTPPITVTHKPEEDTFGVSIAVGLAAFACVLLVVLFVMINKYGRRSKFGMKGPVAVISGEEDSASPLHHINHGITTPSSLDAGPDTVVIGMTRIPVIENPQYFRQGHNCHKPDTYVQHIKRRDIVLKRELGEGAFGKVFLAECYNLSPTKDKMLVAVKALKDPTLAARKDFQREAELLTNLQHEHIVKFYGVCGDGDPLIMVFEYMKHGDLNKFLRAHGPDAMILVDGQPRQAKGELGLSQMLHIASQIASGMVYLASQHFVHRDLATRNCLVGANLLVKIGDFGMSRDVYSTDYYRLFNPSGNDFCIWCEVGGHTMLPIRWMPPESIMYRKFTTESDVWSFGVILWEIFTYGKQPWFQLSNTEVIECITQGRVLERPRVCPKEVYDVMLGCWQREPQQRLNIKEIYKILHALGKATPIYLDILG

[12] = biological target: wild-type BTK (Homo sapiens, UniProt Q06187); test: BTK in vitro activity assay (ADP-Glo, poly-Glu:Tyr phosphorylation, TCEP); settings: for remaining activity at 0.1 µM: read-out: Remaining BTK activity (%)

T1 sequence (P10721 26-976 D816H): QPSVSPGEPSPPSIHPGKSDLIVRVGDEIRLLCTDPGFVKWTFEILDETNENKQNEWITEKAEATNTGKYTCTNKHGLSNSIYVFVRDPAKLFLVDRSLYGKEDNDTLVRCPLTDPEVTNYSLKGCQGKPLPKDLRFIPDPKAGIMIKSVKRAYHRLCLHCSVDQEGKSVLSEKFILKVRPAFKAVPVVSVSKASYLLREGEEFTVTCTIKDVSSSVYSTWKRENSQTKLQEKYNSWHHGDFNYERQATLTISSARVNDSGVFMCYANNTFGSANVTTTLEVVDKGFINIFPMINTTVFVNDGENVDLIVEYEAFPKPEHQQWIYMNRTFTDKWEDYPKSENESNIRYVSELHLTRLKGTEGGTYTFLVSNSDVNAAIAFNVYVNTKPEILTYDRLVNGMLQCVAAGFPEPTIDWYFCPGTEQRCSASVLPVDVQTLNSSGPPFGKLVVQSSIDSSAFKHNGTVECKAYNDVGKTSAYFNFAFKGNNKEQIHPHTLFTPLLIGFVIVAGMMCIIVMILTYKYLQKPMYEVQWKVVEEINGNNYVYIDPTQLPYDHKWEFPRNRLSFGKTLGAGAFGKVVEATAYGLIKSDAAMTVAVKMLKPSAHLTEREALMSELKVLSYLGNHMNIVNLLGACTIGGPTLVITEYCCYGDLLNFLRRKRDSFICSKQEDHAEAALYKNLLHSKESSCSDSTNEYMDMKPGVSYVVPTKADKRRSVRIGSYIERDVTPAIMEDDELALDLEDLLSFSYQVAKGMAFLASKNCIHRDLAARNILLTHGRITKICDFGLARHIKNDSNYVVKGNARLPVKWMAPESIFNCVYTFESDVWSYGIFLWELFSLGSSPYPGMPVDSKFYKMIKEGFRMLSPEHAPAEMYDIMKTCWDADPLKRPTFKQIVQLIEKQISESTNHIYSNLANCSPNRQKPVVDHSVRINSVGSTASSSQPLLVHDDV

Compound | remaining binding at 1 µM ([1]; @1000nM, read-out: %Control) | remaining binding at 1 µM ([1]; read-out: %Control @1000nM) | remaining binding at 1 µM ([2]; @1000nM, read-out: %Control) | remaining binding at 1 µM ([2]; read-out: %Control @1000nM) | remaining binding at 1 µM ([3]; @1000nM, read-out: %Control) | remaining binding at 1 µM ([3]; read-out: %Control @1000nM) | difference in %Control versus compound Ib at 1 µM ([4]; @1000nM) | remaining binding at 1 µM ([4]; @1000nM, read-out: %Control) | remaining binding at 1 µM ([4]; read-out: %Control @1000nM) | remaining binding at 1 µM ([5]; @1000nM, read-out: %Control) | remaining binding at 1 µM ([5]; read-out: %Control @1000nM) | difference in % of control versus compound Ib at 1 µM ([6]; @1000nM) | remaining binding at 1 µM ([6]; @1000nM, read-out: %Control) | remaining binding at 1 µM ([6]; read-out: %Control @1000nM) | remaining binding at 1 µM ([7]; @1000nM, read-out: %Control) | remaining binding at 1 µM ([7]; read-out: %Control @1000nM) | %Control difference versus compound Ib at 1 µM ([8]; @1000nM) | remaining binding at 1 µM ([8]; @1000nM, read-out: %Control) | remaining binding at 1 µM ([8]; read-out: %Control @1000nM) | remaining binding at 1 µM ([9]; @1000nM, read-out: %Control) | also measured
COC(=O)c1cnc(S(C)(=O)=O)nc1N1CCCC(n2nc(-c3ccc(Oc4ccccc4)cc3)c3c(N)ncnc32)C1 (stereo not shown) [Compound 8b, Methyl 4-(3-(4-Amino-3-(4-phenoxyphenyl)-1H-pyrazolo[3,4-d]pyrimidin-1-yl)piperidin-1-yl)-2-(methylsulfonyl)pyrimidine-5-carboxylate] | 98% | 98% | 49% | 49% | 90% | 90% | 0% | 100% | 100% | 90% | 90% | 41.5% | 42% | 42% | 8.3% | 8.3% | 4% | 99% | 99% | 67% | remaining binding at 1 µM ([9]; read-out: %Control @1000nM): 67%; difference in %Control from compound Ib at 1 µM ([10]; @1000nM): 38%; remaining binding at 1 µM ([10]; @1000nM, read-out: %Control): 74%; remaining binding at 1 µM ([10]; read-out: %Control @1000nM): 74%; difference in %Control versus compound Ib at 1 µM ([11]; @1000nM): -17%; remaining binding at 1 µM ([11]; @1000nM, read-out: %Control): 78%; remaining binding at 1 µM ([11]; read-out: %Control @1000nM): 78%; IC50 [12]: 57 ± 1 nM; remaining activity at 0.1 µM [12]: 2 ± 1%
CNC(=O)c1cnc(S(C)(=O)=O)nc1N1CCCC(n2nc(-c3ccc(Oc4ccccc4)cc3)c3c(N)ncnc32)C1 (stereo not shown) [Compound 8d, 4-(3-(4-Amino-3-(4-phenoxyphenyl)-1H-pyrazolo[3,4-d]pyrimidin-1-yl)piperidin-1-yl)-N-methyl-2-(methylsulfonyl)pyrimidine-5-carboxamide] | 50% | 50% | 32% | 32% | 100% | 100% | 0% | 100% | 100% | 78% | 78% | 18.6% | 19% | 19% | 4% | 4% | 5% | 100% | 100% | 49% | remaining binding at 1 µM ([9]; read-out: %Control @1000nM): 49%; difference in %Control from compound Ib at 1 µM ([10]; @1000nM): 47%; remaining binding at 1 µM ([10]; @1000nM, read-out: %Control): 83%; remaining binding at 1 µM ([10]; read-out: %Control @1000nM): 83%; difference in %Control versus compound Ib at 1 µM ([11]; @1000nM): -3%; remaining binding at 1 µM ([11]; @1000nM, read-out: %Control): 92%; remaining binding at 1 µM ([11]; read-out: %Control @1000nM): 92%; IC50 [12]: 28 ± 6 nM; remaining activity at 0.1 µM [12]: 2 ± 0.5%
